Measured values published in patent US9586968B2, “Bicycloamine-substituted-N-benzenesulfonamide compounds with selective activity in voltage-gated sodium channels” (Merck Sharp & Dohme Corp., priority 2013, dated 2017).

How the values were obtained:
[1] = molecular target: T1, human Nav1.7 (Homo sapiens, UniProt Q15858); test: PatchXpress automated patch-clamp, inactivated state block of Nav1.7; assay type: cell-based; settings: channels stably expressed in HEK 293 cells, 22° C., read-out: potency for the Nav 1.7 sodium ion channel (as measured by PatchXpress)
T1 construct: expressed in transfected cells
T1 sequence (Q15858 whole entry): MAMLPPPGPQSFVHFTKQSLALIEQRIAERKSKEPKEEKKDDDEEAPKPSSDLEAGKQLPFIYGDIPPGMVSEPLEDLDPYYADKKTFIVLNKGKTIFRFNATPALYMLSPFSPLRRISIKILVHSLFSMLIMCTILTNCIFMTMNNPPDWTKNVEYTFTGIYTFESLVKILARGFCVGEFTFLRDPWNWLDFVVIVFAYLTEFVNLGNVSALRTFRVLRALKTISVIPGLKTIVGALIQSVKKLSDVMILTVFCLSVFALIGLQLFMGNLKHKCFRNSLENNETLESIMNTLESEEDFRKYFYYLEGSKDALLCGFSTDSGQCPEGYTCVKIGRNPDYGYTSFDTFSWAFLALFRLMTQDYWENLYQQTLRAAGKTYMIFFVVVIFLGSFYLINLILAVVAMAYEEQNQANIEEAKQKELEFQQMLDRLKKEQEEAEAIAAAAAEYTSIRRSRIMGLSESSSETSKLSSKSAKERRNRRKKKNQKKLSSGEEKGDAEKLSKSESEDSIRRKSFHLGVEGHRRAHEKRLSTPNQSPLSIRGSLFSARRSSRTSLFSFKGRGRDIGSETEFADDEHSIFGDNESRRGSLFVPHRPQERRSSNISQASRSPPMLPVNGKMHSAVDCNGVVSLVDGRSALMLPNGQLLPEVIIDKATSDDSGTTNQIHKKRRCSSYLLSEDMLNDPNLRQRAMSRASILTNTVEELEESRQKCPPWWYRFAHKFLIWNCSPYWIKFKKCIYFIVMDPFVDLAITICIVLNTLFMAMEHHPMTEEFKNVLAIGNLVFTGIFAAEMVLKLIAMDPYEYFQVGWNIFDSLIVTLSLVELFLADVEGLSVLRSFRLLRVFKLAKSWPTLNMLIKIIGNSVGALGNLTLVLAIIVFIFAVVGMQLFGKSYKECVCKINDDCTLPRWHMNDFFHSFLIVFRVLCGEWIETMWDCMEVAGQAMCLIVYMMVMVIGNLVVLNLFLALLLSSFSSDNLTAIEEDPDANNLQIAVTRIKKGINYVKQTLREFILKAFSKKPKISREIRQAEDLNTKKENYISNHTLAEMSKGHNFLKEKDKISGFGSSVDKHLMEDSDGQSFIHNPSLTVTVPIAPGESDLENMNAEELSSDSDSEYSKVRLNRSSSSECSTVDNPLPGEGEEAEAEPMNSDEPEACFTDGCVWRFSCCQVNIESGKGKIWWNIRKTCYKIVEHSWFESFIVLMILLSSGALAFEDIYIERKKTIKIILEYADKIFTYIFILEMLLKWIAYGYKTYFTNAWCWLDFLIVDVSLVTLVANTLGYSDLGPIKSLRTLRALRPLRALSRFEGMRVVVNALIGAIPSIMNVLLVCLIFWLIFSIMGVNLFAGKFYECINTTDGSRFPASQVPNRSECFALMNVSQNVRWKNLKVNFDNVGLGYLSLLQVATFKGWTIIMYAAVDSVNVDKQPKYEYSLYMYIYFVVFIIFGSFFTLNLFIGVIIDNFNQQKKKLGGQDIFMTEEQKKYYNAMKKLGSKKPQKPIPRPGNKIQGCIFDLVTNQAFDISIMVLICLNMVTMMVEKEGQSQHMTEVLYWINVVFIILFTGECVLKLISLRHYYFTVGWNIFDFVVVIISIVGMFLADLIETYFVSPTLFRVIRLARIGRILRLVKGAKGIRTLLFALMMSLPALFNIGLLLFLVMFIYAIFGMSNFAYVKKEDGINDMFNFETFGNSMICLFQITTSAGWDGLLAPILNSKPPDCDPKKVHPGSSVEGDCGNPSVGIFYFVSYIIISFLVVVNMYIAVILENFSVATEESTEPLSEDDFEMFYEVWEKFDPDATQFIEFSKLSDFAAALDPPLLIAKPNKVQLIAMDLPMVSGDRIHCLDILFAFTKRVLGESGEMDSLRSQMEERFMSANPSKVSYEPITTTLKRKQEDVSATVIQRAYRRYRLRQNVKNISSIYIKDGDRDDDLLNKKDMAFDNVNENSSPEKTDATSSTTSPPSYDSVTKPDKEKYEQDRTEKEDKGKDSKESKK
Procedure, shortened: (§1)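 Inactivated-state protocol: 8000 ms conditioning 7 mV above V0.5 inact from a holding potential 20 mV below it, then 2 ms at −120 mV and a 20 ms test to −20 mV.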

[2] = molecular target: T2, human Nav1.5 (Homo sapiens, UniProt Q14524); test: PatchXpress automated patch-clamp, inactivated state block of Nav1.5 (selectivity); assay type: cell-based; settings: determined by PatchXpress measurement, HEK 293 cells
T2 construct: expressed in transfected cells
T2 sequence (Q14524 whole entry): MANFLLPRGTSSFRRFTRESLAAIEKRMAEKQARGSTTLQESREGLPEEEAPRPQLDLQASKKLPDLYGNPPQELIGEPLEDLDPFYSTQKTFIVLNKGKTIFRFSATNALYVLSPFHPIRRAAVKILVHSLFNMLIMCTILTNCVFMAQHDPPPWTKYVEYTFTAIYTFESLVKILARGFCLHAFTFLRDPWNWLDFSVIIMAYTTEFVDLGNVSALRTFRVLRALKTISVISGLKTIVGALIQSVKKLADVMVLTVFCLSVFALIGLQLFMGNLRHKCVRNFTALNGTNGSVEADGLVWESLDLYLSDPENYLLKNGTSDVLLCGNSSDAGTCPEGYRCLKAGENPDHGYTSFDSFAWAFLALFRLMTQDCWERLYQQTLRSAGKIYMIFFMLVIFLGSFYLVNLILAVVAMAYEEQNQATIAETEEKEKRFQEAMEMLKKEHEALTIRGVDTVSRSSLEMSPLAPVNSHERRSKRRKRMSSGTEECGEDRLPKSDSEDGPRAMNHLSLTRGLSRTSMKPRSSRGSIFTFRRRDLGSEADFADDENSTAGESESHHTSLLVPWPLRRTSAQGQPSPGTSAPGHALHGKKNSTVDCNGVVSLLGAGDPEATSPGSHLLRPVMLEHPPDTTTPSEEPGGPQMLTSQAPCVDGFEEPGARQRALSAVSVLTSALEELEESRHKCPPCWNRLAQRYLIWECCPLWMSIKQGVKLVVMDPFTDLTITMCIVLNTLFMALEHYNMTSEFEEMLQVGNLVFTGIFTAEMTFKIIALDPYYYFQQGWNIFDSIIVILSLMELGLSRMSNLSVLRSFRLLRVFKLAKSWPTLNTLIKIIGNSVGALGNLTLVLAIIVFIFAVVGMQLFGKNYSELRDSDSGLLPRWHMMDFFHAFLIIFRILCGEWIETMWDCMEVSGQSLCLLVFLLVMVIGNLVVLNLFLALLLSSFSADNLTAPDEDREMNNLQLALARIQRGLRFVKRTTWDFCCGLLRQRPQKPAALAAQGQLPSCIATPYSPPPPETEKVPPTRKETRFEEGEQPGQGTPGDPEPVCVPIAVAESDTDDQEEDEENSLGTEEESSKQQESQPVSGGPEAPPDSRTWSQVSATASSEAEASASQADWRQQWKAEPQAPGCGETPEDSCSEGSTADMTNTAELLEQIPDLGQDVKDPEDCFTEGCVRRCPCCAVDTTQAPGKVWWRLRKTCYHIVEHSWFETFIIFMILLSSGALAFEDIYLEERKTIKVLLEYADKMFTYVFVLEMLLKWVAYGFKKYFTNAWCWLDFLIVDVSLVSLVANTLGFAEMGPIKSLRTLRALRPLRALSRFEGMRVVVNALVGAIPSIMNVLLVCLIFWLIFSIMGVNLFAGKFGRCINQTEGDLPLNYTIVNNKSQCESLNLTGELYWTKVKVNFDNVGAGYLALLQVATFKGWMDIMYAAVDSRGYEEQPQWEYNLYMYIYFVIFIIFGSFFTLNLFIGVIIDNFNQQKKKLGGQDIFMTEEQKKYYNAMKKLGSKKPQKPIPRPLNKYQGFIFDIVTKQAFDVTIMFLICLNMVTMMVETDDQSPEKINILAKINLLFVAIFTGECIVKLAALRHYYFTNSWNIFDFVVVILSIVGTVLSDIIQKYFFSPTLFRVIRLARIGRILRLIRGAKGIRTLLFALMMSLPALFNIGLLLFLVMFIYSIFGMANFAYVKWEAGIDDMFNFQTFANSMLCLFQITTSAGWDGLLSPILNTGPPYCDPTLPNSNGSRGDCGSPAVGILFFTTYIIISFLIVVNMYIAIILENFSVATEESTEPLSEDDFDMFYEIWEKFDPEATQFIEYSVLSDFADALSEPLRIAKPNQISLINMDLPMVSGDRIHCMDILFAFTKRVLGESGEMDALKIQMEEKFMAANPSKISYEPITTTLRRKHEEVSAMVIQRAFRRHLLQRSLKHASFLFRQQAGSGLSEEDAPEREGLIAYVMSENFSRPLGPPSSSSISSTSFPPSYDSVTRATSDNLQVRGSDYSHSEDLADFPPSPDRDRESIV
Procedure, shortened: as §1

IC50 [1] [µM]	Structure (SMILES)	ratio of Nav1.7 potency:Nav 1.5 potency [2]
0.014	O=S(=O)(Nc1nccs1)c1ccc(NCC23CCCN2CCC3)c(C(F)(F)F)c1 [Ex1-20, 4-(((hexahydro-1H-pyrrolizin-7a-yl)methyl)amino)-N-(thiazol-2-yl)-3-(trifluoromethyl)benzene-sulfonamide]	765
0.005	CC1CN2CCCC2(CNc2ccc(S(=O)(=O)Nc3nccs3)cc2Cl)C1 [Ex4-11, 3-chloro-4-((((2S/7aR and 2R,7aS)-2-methylhexahydro-1H-pyrrolizin-7a-yl)methyl)amino)-N-(thiazol-2-yl)benzenesulfonamide]	7180
0.022	CC1CCC2(CNc3ccc(S(=O)(=O)Nc4nccs4)cc3C(F)(F)F)CCCN12 (single isomer, unassigned) [Ex11-10-A, 4-((((3S,7aS or 3R,7aR)-3-methyl-hexahydro-1H-pyrrolizin-7a-yl)methyl)-amino)-N-(thiazol-2-yl)-3-(trifluoromethyl)-benzenesulfonamide]	1376
0.028	O=S(=O)(Nc1nccs1)c1cc(Cl)c(NC[C@@]23CCCN2[C@H](CO)CC3)cc1F (single isomer, unassigned) [Ex14-11-A]	1062
0.095	N#Cc1cc(NCC23CCCN2CCC3)c(Cl)cc1S(=O)(=O)Nc1nccs1 [Ex12-6, 5-chloro-2-cyano-4-(((hexahydro-1H-pyrrolizin-7a-yl)methyl)amino)-N-(thiazol-2-yl)benzenesulfonamide]	180
0.005	O=S(=O)(Nc1nccs1)c1cc(Br)c(NCC23CCCN2CCC3)cc1F [Ex1-17, 5-bromo-2-fluoro-4-(((hexahydro-1H-pyrrolizin-7a-yl)methyl)amino)-N-(thiazol-2-yl)benzenesulfonamide]	670
0.016	CCc1cc(S(=O)(=O)Nc2nccs2)c(F)cc1NCC12CCCN1CC(C)(C)C2 (single isomer, unassigned) [Ex18-9-B, (R or S)-4-(((2,2-dimethylhexahydro-1H-pyrrolizin-7a-yl)methyl)-amino)-5-ethyl-2-fluoro-N-(thiazol-2-yl)-benzenesulfonamide]	1870
